Test [1] relates to 5-HT transmission. As to the kind of experiment: Fenfluramine-induced hyperthermia in rats (reduction of 5-HT transmission in vivo). To be noted: four day chronic pretreatment, 10 mg/kg ip. twice daily, fenfluramine 7.5 mg/kg ip. The method, then: The activity of the compounds to reduce 5-HT transmission can be assessed in vivo by measuring their effect on the hyperthermia induced by an intraperitoneal injection of fenfluramine (see A. Sulpizio et al, Life Sciences 22 1439 (1978). As an illustration a four day chronic pretreatment of rats with 3-(3'-methoxyphenyl)-3-(3"-N,N dimethylaminopropyl) 4,4-dimethyl-2,6-dioxopiperidine hydrochloride at a dose level of 10 mg/kg ip. twice daily produced a 50 percent reduction in the hyperthermia induced by fenfluramine administered at a dose level of 7.5 mg/kg ip.

The subject of test [2] is tryptophan hydroxylase. As to the kind of experiment: Inhibition of the depolarisation induction of tryptophan hydroxylase in rat brainstem slices. It counts as cell-based. To be noted: 37° C., from concentration response curves, read-out: IC50, concentration causing 50 percent inhibition of the depolarisation induction of tryptophan hydroxylase. The method, then:
The activity of the compounds as inhibitors of the depolarisation induction of tryptophan hydroxylase can be assessed by determining the IC50 in rat brainstem slices as described by Margaret C. Boadle-Biber, Biochemical Pharmacology 27 1069 (1978). The IC50 values are derived from concentration response curves as the concentration causing 50 percent inhibition of the depolarisation induction at 37° C. As an illustration the IC50 of d,l 3-(3'-methoxyphenyl)-3-(3"-N,N-dimethylaminopropyl)-4,4-dimethyl-2,6-dioxopiperidine hydrochloride is 10 μM.

Here are results for 1 molecule from patent US4461771A, “Treatment of migraine with dioxopiperidine derivatives” (priority 1983, dated 1984).

Where a name gives a salt, the structure may show the parent alone.

With `COc1cccc(C2(CCCN(C)C)C(=O)NC(=O)CC2(C)C)c1` (racemic) [Example 1, 3-(3'-Methoxyphenyl-3-(3"-N,N-dimethylaminopropyl)-4,4-dimethyl-2,6-dioxopiperidine hydrochloride], the “reduction in the hyperthermia induced by fenfluramine” value in test [1] came out at 50%. Further, in test [2], the IC50 turned out to be 10 µM.
